Laboratory results reported in patent publication EP4745137A1 (Gluetacs Therapeutics (Shanghai) Co., Ltd., priority 2023, dated 2025).

Legend:
[1] = biological target: T1, human Cereblon WT GST-tagged protein (Homo sapiens, UniProt Q96SW2); test: CRBN-binding affinity by HTRF (CEREBLON BINDING kit); details: HTRF inhibitory activity, CEREBLON BINDING kit; read-out: HTRF IC50
T1 construct: purchased CISBIO 64BDCRBNPEH
Method: The CEREBLON BINDING kits (specification: 10,000 tests; product number: Catalog # 64BDCRBNPEH; CISBIO company) was used to determine the CRBN binding ability of the compounds to be tested through a HTRF method (homogeneous time-resolved fluorescence). The specific methods are as follows: • 1. […] Specifically, diluent #9 (1X) solution was used as the diluent, and multiple concentration gradients were set. […] Then, 2.5 µL of human Cereblon WT GST-tagged protein solution was added to each well. Finally, 5 µL of the thoroughly mixed Thalidomide-Re reagent and GST Eu antibody working solution were added to each of the aforementioned wells. […] The blank control wells were sequentially added with 2.5 µL of diluent #9 (1X) solution, 2.5 µL of binding buffer, and 5 µL of thoroughly mixed Thalidomide-Re reagent and GST Eu antibody working solution. • 4.

[2] = biological target: T2, IKZF2 (Homo sapiens, UniProt Q96SW2+Q9UKS7); test: Western-blot assay of substrate protein degradation in hPBMCs, IKZF2; assay type: cell-based; details: 24 hours of compound treatment
T2 construct: endogenous in cells; host or cells: hPBMCs (Milecell Biotechnologies)

[3] = biological target: T3, GSPT1 (Homo sapiens, UniProt P15170+Q96SW2); test: Western-blot assay of substrate protein degradation in hPBMCs, GSPT1; assay type: cell-based; details: 24 hours of compound treatment
T3 construct: endogenous in cells; host or cells: hPBMCs (Milecell Biotechnologies)

[4] = biological target: T4, IKZF3 (Homo sapiens, UniProt Q96SW2+Q9UKT9); test: Western-blot assay of substrate protein degradation in hPBMCs, IKZF3; assay type: cell-based; details: 24 hours of compound treatment
T4 construct: endogenous in cells; host or cells: hPBMCs (Milecell Biotechnologies)

[5] = biological target: T5, CK1α (Homo sapiens, UniProt P48729+Q96SW2); test: Western-blot assay of substrate protein degradation in hPBMCs, CK1α; assay type: cell-based; details: 24 hours of compound treatment
T5 construct: endogenous in cells; host or cells: hPBMCs (Milecell Biotechnologies)

[6] = biological target: T6, IKZF1 (Homo sapiens, UniProt Q13422+Q96SW2); test: Western-blot assay of substrate protein degradation in hPBMCs, IKZF1; assay type: cell-based; details: 24 hours of compound treatment
T6 construct: endogenous in cells; host or cells: hPBMCs (Milecell Biotechnologies)

[7] = biological target: T7, WEE1 (Homo sapiens, UniProt P30291+Q96SW2); test: Western-blot assay of substrate protein degradation in hPBMCs, WEE1; assay type: cell-based; details: 24 hours of compound treatment
T7 construct: endogenous in cells; host or cells: hPBMCs (Milecell Biotechnologies)

[8] = 50 nM and 500 nM tested (concentration behind the class not stated)
[9] = compounds tested at 50 nM and 500 nM (concentration of the table not stated)

T4 sequence (Q9UKT9 whole entry): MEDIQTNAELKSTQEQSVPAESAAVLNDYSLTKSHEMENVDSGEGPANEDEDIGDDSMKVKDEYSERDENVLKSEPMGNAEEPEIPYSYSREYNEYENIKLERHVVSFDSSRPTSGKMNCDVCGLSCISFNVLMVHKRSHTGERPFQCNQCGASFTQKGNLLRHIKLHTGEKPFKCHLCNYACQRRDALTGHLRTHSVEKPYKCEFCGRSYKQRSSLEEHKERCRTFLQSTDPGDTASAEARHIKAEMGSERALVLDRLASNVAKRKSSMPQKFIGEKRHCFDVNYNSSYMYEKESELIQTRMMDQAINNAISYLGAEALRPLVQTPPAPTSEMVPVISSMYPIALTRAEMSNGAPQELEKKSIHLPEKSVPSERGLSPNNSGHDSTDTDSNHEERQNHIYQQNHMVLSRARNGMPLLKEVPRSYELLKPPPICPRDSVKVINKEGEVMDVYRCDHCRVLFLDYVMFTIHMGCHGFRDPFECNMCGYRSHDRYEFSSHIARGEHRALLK
T4 sequence (Q96SW2 whole entry): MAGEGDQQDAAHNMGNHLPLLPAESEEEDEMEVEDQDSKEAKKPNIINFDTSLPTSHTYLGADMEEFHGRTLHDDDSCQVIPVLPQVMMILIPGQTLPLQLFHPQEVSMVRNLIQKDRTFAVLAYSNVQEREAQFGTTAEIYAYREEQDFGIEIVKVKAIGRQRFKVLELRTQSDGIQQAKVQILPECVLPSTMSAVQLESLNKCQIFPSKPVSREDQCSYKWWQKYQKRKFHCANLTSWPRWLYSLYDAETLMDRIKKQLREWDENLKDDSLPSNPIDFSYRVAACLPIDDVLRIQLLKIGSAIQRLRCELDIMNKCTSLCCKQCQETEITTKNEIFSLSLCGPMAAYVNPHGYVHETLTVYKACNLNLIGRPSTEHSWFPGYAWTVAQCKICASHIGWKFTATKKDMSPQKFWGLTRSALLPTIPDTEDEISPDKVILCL
T4 sequence (Q16531 whole entry partner): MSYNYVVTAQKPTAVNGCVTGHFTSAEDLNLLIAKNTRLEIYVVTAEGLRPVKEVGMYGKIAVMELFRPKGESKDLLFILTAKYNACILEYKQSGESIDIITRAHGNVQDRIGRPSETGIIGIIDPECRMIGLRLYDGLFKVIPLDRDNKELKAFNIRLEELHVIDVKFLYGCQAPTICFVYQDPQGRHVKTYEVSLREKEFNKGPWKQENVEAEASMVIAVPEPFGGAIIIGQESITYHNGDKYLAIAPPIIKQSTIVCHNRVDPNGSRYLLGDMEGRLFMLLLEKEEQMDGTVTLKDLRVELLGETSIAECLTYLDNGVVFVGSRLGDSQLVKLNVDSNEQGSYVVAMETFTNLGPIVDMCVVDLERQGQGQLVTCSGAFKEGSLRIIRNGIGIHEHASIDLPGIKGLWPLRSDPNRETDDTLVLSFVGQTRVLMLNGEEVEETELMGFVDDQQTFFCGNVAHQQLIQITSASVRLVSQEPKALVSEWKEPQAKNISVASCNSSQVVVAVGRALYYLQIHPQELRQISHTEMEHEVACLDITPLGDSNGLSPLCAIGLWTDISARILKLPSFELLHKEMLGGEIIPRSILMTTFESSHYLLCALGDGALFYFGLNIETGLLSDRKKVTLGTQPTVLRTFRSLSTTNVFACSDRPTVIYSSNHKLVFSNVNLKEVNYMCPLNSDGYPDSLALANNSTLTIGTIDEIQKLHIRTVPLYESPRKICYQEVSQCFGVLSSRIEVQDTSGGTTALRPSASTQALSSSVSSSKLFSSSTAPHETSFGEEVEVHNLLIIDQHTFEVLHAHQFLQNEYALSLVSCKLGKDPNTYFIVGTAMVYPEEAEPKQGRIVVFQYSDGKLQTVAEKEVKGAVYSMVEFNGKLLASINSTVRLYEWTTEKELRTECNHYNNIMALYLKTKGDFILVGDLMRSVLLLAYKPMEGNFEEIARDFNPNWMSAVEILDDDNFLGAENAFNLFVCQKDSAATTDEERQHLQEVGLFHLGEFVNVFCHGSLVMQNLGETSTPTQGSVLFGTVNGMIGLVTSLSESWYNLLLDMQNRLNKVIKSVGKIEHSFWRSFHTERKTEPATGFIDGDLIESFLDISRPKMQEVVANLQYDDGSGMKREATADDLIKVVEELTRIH
T2 sequence (Q9UKS7 whole entry): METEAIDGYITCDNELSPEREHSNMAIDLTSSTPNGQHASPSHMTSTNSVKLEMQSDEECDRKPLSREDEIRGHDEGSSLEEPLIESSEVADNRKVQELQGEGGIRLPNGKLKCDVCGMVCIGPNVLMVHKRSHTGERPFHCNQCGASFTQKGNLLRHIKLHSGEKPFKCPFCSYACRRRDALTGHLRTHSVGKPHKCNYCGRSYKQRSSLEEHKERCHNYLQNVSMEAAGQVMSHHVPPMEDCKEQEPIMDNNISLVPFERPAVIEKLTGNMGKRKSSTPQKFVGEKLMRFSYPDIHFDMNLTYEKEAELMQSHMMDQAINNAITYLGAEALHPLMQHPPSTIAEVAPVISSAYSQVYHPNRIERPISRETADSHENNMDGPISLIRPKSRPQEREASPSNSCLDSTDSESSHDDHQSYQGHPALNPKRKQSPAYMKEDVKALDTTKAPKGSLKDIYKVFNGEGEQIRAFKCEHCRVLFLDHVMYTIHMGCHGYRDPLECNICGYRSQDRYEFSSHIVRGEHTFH
T2 sequence (Q96SW2 whole entry): as the sequence (Q96SW2 whole entry) above
T2 sequence (Q16531 whole entry partner): as the sequence (Q16531 whole entry partner) above
T7 sequence (P30291 whole entry): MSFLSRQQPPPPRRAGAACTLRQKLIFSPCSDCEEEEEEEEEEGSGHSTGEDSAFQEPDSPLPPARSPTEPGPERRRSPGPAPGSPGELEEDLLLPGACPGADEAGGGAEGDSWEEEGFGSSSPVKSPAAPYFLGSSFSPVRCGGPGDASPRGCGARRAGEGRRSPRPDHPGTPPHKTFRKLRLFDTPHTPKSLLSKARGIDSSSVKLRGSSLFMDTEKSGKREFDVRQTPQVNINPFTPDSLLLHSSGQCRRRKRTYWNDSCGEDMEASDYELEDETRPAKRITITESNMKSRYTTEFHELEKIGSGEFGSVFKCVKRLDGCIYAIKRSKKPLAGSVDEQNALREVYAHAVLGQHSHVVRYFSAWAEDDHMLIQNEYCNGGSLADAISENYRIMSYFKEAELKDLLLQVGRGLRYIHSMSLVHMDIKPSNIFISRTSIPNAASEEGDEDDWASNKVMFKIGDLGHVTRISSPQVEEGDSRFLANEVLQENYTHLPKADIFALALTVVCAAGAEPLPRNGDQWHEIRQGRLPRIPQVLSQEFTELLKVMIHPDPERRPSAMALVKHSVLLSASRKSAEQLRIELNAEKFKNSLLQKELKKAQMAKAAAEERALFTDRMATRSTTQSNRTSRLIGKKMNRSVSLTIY
T7 sequence (Q96SW2 whole entry): as the sequence (Q96SW2 whole entry) above
T7 sequence (Q16531 whole entry partner): as the sequence (Q16531 whole entry partner) above
T5 sequence (P48729 whole entry): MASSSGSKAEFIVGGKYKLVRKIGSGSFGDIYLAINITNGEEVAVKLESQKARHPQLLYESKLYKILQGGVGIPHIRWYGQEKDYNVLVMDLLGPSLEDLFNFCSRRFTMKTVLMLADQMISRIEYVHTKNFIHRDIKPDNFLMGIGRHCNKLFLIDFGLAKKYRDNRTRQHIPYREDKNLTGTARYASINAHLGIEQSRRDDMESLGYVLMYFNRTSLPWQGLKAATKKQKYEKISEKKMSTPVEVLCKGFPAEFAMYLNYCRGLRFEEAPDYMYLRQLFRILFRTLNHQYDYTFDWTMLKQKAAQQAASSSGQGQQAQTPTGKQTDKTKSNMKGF
T5 sequence (Q96SW2 whole entry): as the sequence (Q96SW2 whole entry) above
T5 sequence (Q16531 whole entry partner): as the sequence (Q16531 whole entry partner) above
T6 sequence (Q13422 whole entry): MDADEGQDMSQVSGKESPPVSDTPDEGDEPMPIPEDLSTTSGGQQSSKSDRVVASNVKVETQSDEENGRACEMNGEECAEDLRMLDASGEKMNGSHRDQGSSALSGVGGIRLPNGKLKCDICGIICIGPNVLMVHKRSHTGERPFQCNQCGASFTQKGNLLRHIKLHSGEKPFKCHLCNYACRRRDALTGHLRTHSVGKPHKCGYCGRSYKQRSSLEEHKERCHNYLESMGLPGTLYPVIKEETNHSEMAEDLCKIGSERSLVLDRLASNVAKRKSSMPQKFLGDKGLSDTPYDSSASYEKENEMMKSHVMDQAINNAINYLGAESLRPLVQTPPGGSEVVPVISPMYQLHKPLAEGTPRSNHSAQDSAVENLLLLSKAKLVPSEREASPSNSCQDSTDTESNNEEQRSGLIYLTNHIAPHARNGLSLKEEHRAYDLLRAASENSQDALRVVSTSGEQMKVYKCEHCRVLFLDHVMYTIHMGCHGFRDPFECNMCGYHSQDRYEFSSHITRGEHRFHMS
T6 sequence (Q96SW2 whole entry): as the sequence (Q96SW2 whole entry) above
T6 sequence (Q16531 whole entry partner): as the sequence (Q16531 whole entry partner) above
T1 sequence (Q96SW2 whole entry): as the sequence (Q96SW2 whole entry) above

SMILES | IC50 [1] | IKZF2 substrate protein remaining % [2, 8] | GSPT1 substrate protein remaining % [3, 8] | IKZF3 substrate protein remaining % [4, 8] | CK1a substrate protein remaining % [5, 8] | IKZF 1 substrate protein remaining % [6, 8] | Weel substrate protein remaining % [7, 8] | also measured
O=C1CCC(N2Cc3cc(CN4CCN(c5nc6c(c(N7CCNCC7)n5)SCC6)CC4)ccc3C2=O)C(=O)N1 (stereo not shown) [GT-04720, 3-(1-oxo-5-((4-(4-(piperazin-1-yl)-6,7-dihydrothieno[3,2-d]pyrimidin-2-yl)piperazin-1-yl)methyl)isoindolin-2-yl)piperidine-2,6-dione] | < 0.5 µM |  |  |  |  |  |  | 
O=C1CCC(N2C(=O)c3ccc(CN4CCN(c5ncnc6scc(-c7ccccc7)c56)CC4)cc3C2=O)C(=O)N1 (stereo not shown) [GT-06345, 2-(2,6-dioxopiperidin-3-yl)-5-((4-(5-phenylthieno[2,3-d]pyrimidin-4-yl)piperazin-1-yl)methyl)isoindoline-1,3-dione] | 1 to 1.5 µM |  |  |  |  |  |  | 
O=C1CCC(N2Cc3cc(CN4CCN(c5c(Cl)ccnc5Cl)CC4)ccc3C2=O)C(=O)N1 (stereo not shown) [GT-04896, 3-(5-((4-(2,4-dichloropyridin-3-yl)piperazin-1-yl)methyl)-1-oxoisoindolin-2-yl)piperidine-2,6-dione] | 0.5 to 1 µM |  |  |  |  |  |  | 
Cc1nc(N2CCN(Cc3ccc4c(c3)C(=O)N(C3CCC(=O)NC3=O)C4=O)CC2)c2c(-c3ccccc3)csc2n1 (stereo not shown) [GT-06346, 2-(2,6-dioxopiperidin-3-yl)-5-((4-(2-methyl-5-phenylthieno[2,3-d]pyrimidin-4-yl)piperazin-1-yl)methyl)isoindoline-1,3-dione] | 1 to 1.5 µM |  |  |  |  |  |  | 
O=C1CCC(N2C(=O)c3ccc(CN4CCN(c5ccc(Cl)nn5)CC4)cc3C2=O)C(=O)N1 (stereo not shown) [GT-06605, 5-((4-(6-chloropyridazin-3-yl)piperazin-1-yl)methyl)-2-(2,6-dioxopiperidin-3-yl)isoindoline-1,3-dione] | 1.5 to 1.9 µM |  |  |  |  |  |  | 
Cc1nc(N2CCN(Cc3ccc4c(c3)CN(C3CCC(=O)NC3=O)C4=O)CC2)c2c(-c3ccccc3)csc2n1 (stereo not shown) [GT-05100, 3-(5-((4-(2-methyl-5-phenylthieno[2,3-d]pyrimidin-4-yl)piperazin-1-yl)methyl)-1-oxoisoindolin-2-yl)piperidine-2,6-dione] | < 0.5 µM |  |  |  |  |  |  | 
O=C1CCC(N2Cc3cc(CN4CCN(c5nc(Cl)nc6c5SCC6)CC4)ccc3C2=O)C(=O)N1 (stereo not shown) [GT-04683, 3-(5-((4-(2-chloro-6,7-dihydrothieno[3,2-d]pyrimidin-4-yl)piperazin-1-yl)methyl)-1-oxoisoindolin-2-yl)piperidine-2,6-dione] | 0.5 to 1 µM |  |  |  |  |  |  | 
O=C1CCC(N2C(=O)c3ccc(CN4CCN(c5ccncc5)CC4)cc3C2=O)C(=O)N1 (stereo not shown) [GT-06553, 2-(2,6-dioxopiperidin-3-yl)-5-((4-(pyridin-4-yl)piperazin-1-yl)methyl)isoindoline-1,3-dione] |  | A (0% ≤ substrate protein remaining % ≤ 80%) | A (0% ≤ substrate protein remaining % ≤ 80%) | B (80%< substrate protein remaining %≤ 100%) | B (80%< substrate protein remaining %≤ 100%) | B (80%< substrate protein remaining %≤ 100%) | B (80%< substrate protein remaining %≤ 100%) | 
O=C1CCC(N2Cc3c(CN4CCN(c5cccc6sccc56)CC4)cccc3C2=O)C(=O)N1 (stereo not shown) [GT-04914, 3-(4-((4-(benzo[b]thiophen-4-yl)piperazin-1-yl)methyl)-1-oxoisoindolin-2-yl)piperidine-2,6-dione] |  |  |  |  |  |  |  | IKZF2 substrate protein remaining % [2, 9]: B (80%< substrate protein remaining %≤ 100%); GSPT1 substrate protein remaining % [3, 9]: A (0% ≤ substrate protein remaining % ≤ 80%); IKZF3 substrate protein remaining % [4, 9]: B (80%< substrate protein remaining %≤ 100%); CK1a substrate protein remaining % [5, 9]: A (0% ≤ substrate protein remaining % ≤ 80%); IKZF 1 substrate protein remaining % [6, 9]: A (0% ≤ substrate protein remaining % ≤ 80%); Weel substrate protein remaining % [7, 9]: A (0% ≤ substrate protein remaining % ≤ 80%)
O=C1CCC(N2C(=O)c3cccc(CN4CCC(c5noc6cc(F)ccc56)CC4)c3C2=O)C(=O)N1 (stereo not shown) [GT-04770, 2-(2,6-dioxopiperidin-3-yl)-4-((4-(6-fluorobenzo[d]isoxazol-3-yl)piperidin-1-yl)methyl)isoindoline-1,3-dione] |  |  |  |  |  |  |  | IKZF2 substrate protein remaining % [2, 9]: B (80%< substrate protein remaining %≤ 100%); GSPT1 substrate protein remaining % [3, 9]: A (0% ≤ substrate protein remaining % ≤ 80%); IKZF3 substrate protein remaining % [4, 9]: B (80%< substrate protein remaining %≤ 100%); CK1a substrate protein remaining % [5, 9]: B (80%< substrate protein remaining %≤ 100%); IKZF 1 substrate protein remaining % [6, 9]: B (80%< substrate protein remaining %≤ 100%); Weel substrate protein remaining % [7, 9]: B (80%< substrate protein remaining %≤ 100%)
O=C1CCC(N2C(=O)c3ccc(CN4CCN(c5noc6cc(F)ccc56)CC4)cc3C2=O)C(=O)N1 (stereo not shown) [GT-06629, 2-(2,6-dioxopiperidin-3-yl)-5-((4-(6-fluorobenzo[d]isoxazol-3-yl)piperazin-1-yl)methyl)isoindoline-1,3-dione] |  | A (0% ≤ substrate protein remaining % ≤ 80%) | A (0% ≤ substrate protein remaining % ≤ 80%) | B (80%< substrate protein remaining %≤ 100%) | A (0% ≤ substrate protein remaining % ≤ 80%) | B (80%< substrate protein remaining %≤ 100%) | A (0% ≤ substrate protein remaining % ≤ 80%) | 
O=C1CCC(N2C(=O)c3ccc(CN4CCN(c5cc(Cl)ccn5)CC4)cc3C2=O)C(=O)N1 (stereo not shown) [GT-06525, 5-((4-(4-chloropyridin-2-yl)piperazin-1-yl)methyl)-2-(2,6-dioxopiperidin-3-yl)isoindoline-1,3-dione] |  | A (0% ≤ substrate protein remaining % ≤ 80%) | A (0% ≤ substrate protein remaining % ≤ 80%) | A (0% ≤ substrate protein remaining % ≤ 80%) | B (80%< substrate protein remaining %≤ 100%) | B (80%< substrate protein remaining %≤ 100%) | A (0% ≤ substrate protein remaining % ≤ 80%) | 
O=C1CCC(N2C(=O)c3ccc(CN4CC=C(c5cccc(F)c5Cl)CC4)cc3C2=O)C(=O)N1 (stereo not shown) [GT-06429, 5-((4-(2-chloro-3-fluorophenyl)-3,6-dihydropyridin-1(2H)-yl)methyl)-2-(2,6-dioxopiperidin-3-yl)isoindoline-1,3-dione] |  | A (0% ≤ substrate protein remaining % ≤ 80%) | A (0% ≤ substrate protein remaining % ≤ 80%) | A (0% ≤ substrate protein remaining % ≤ 80%) | A (0% ≤ substrate protein remaining % ≤ 80%) | A (0% ≤ substrate protein remaining % ≤ 80%) | A (0% ≤ substrate protein remaining % ≤ 80%) | 
Cc1cc(C2CCN(Cc3ccc4c(c3)C(=O)N(C3CCC(=O)NC3=O)C4=O)CC2)cs1 (stereo not shown) [GT-06283, 2-(2,6-dioxopiperidin-3-yl)-5-((4-(5-methylthiophen-3-yl)piperidin-1-yl)methyl)isoindoline-1,3-dione] |  | B (80%< substrate protein remaining %≤ 100%) | A (0% ≤ substrate protein remaining % ≤ 80%) | B (80%< substrate protein remaining %≤ 100%) | B (80%< substrate protein remaining %≤ 100%) | B (80%< substrate protein remaining %≤ 100%) | B (80%< substrate protein remaining %≤ 100%) | 
O=C1CCC(N2C(=O)c3ccc(CN4CC=C(c5ccnc6cc(F)ccc56)CC4)cc3C2=O)C(=O)N1 (stereo not shown) [GT-06267, 2-(2,6-dioxopiperidin-3-yl)-5-((4-(7-fluoroquinolin-4-yl)-3,6-dihydropyridin-1(2H)-yl)methyl)isoindoline-1,3-dione] |  |  |  |  |  |  |  | IKZF2 substrate protein remaining % [2, 9]: A (0% ≤ substrate protein remaining % ≤ 80%); GSPT1 substrate protein remaining % [3, 9]: A (0% ≤ substrate protein remaining % ≤ 80%); IKZF3 substrate protein remaining % [4, 9]: A (0% ≤ substrate protein remaining % ≤ 80%); CK1a substrate protein remaining % [5, 9]: A (0% ≤ substrate protein remaining % ≤ 80%); IKZF 1 substrate protein remaining % [6, 9]: B (80%< substrate protein remaining %≤ 100%); Weel substrate protein remaining % [7, 9]: A (0% ≤ substrate protein remaining % ≤ 80%)
Cc1nc(C2CCN(Cc3ccc4c(c3)C(=O)N(C3CCC(=O)NC3=O)C4=O)CC2)c2ccsc2n1 (stereo not shown) [GT-06647, 2-(2,6-dioxopiperidin-3-yl)-5-((4-(2-methylthieno[2,3-d]pyrimidin-4-yl)piperidin-1-yl)methyl)isoindoline-1,3-dione] |  | A (0% ≤ substrate protein remaining % ≤ 80%) | A (0% ≤ substrate protein remaining % ≤ 80%) | B (80%< substrate protein remaining %≤ 100%) | A (0% ≤ substrate protein remaining % ≤ 80%) | B (80%< substrate protein remaining %≤ 100%) | A (0% ≤ substrate protein remaining % ≤ 80%) | 
